Data as given in patent US12559464B2, “Quinazolinone dione compounds and uses thereof” (Edgewise Therapeutics, Inc., priority 2023, dated 2026).

How the values were obtained:
[1] = tested on: myosin ATPase, Rabbit Psoas myofibrils; experiment: Myofibril ATPase assay, rabbit psoas (skeletal) myofibrils; assay type: biochemical; details: concentration required to reduce myosin ATP-ase activity by 25%; Rabbit Psoas Prep pCa 25 GEOM_MEAN
Protocol: [Worded in the source for another species; this species is reported under the same test.] (§1) Myofibril ATPase assays are known in the art to be useful in evaluating small molecules for the treatment of HCM and other cardiac indications. Myosin ATPase activity is assessed by using a coupled reaction system, in which ADP generated by the myosin ATPase function is coupled to the disappearance of NADH through the pyruvate kinase/lactate dehydrogenase (PK-LDH) system. ATPase activity produces ADP, which is used as a substrate for PK to produce pyruvate and regenerate ATP. The pyruvate is then used as a substrate by LDH to oxidize NADH to NAD+. The rate of the reaction is monitored through the time-dependent disappearance of NADH using absorbance at 340 nm, which, when the couple system is in stoichiometric excess, is directly correlated to the ATPase activity of the myosin. Inhibition of ATPase activity by the assayed compounds is indicated by a reduced rate of NADH loss, relative to vehicle-treated controls, over the experimental time window. Porcine Ventricle are the primary sources of myofibril material.
(§2) Materials: The following stock solutions and reagents were used in the Myofibril ATPase Assay: Stock Solutions; PIPES, 200 mM and 120 mM in H2O, pH 7.0; MgCl2 in H2O, 200 mM; PM12 Buffer, 10×: 120 mM PIPES (from 200 mM stock), 20 mM MgCl2 (from 200 mM stock); PBS Buffer, 1X: 135 mM NaCl, […], 10 mM Na(PO4)2, 1.8 mM K2(PO4), pH 7.4; EGTA in H2O, 250 mM; CaCl2) in H2O, 500 mM; DTT in H2O, 1 M; BSA in H2O, 10 mg/mL; ATP in 1×PBS, 50 mM; NADH in 1X PM12 and 1 mM DTT, 26 mM; PEP in 1X PM12, 78 mM, pH 7.0.
(§3) Stock Solutions of pCa buffer. Combine PIPES, CaCl2, and EGTA solutions with water. Adjust pH to 7.0 and bring final volume to 100 mL.
(§4) Buffer A & Buffer B. Prepare buffers A and B according to the table below.
(§5) Myofibril ATPase Assay Procedure: BSA, ATP, NADH, PEP, and DTT solutions were thawed at room temperature, then transferred to ice. Pellet-frozen myofibrils were transferred with approximately twice the required volume into a sufficiently large tube and capped. Myofibrils were thawed by rolling in a water bath for approximately 15 min at room temperature and cooled on ice. Buffers A and B were prepared by adjusting volumes as necessary for required number of wells and stored on ice. 0.5 μL of the compounds to be assayed were added into wells. 25 μL of Buffer A was dispensed into the wells, followed by 25 μL of Buffer B. The wells were measured for absorbance at 340 nm, using a kinetic protocol in which the wells are read every 1.5-2 min for 75 min. Assay data analysis was performed using a python script that filtered the raw data to retain those points falling between a starting and ending time and between a maximum and minimum absorbance, then used the filtered time-domain 340 nm absorbance data in each well to calculate a slope via linear regression analysis in units of mAU/min. Compound slopes were normalized between 100% and 0% activity, where 100% represented the slope of wells containing only compound vehicle, and fit to a 4-parameter logistic model. In addition to the fit parameters, the EC25% values were calculated, relative to the 100% normalized value. Additionally, the Y125 values were calculated for compounds that increased myosin ATP-ase activity. Fit parameters, calculated effective concentrations, filtered raw data, and calculated slopes were exported, in addition to compound-specific graphs of normalized ATPase activity versus concentration in μM. Each value reported in Table 8 is either a Y75 value or a Y125 value. Values without pound sign, #, are Y75 values, which reflect the concentration required to reduce myosin ATP-ase activity by 25% (e.g., Y-axis activity value is 75% of initial value), relative to myosin ATP-ase activity in the absence of exogenous compound. […]

[2] = target: T1, myosin ATPase, Porcine Ventricle myofibrils (Sus scrofa, UniProt P79293); experiment: Myofibril ATPase assay, porcine ventricle myofibrils; assay type: biochemical, porcine (Yucatan minipigs); details: concentration required to reduce myosin ATP-ase activity by 25%; Porcine Ventricle Prep pCa 25 GEOM_MEAN
T1 construct: Myofibrils from porcine cardiac muscle was isolated from the left ventricle of Yucatan minipigs; tissue Exemplar Genetics; host or cells: left ventricle of Yucatan minipigs, myofibrils
T1 sequence (P79293 whole entry): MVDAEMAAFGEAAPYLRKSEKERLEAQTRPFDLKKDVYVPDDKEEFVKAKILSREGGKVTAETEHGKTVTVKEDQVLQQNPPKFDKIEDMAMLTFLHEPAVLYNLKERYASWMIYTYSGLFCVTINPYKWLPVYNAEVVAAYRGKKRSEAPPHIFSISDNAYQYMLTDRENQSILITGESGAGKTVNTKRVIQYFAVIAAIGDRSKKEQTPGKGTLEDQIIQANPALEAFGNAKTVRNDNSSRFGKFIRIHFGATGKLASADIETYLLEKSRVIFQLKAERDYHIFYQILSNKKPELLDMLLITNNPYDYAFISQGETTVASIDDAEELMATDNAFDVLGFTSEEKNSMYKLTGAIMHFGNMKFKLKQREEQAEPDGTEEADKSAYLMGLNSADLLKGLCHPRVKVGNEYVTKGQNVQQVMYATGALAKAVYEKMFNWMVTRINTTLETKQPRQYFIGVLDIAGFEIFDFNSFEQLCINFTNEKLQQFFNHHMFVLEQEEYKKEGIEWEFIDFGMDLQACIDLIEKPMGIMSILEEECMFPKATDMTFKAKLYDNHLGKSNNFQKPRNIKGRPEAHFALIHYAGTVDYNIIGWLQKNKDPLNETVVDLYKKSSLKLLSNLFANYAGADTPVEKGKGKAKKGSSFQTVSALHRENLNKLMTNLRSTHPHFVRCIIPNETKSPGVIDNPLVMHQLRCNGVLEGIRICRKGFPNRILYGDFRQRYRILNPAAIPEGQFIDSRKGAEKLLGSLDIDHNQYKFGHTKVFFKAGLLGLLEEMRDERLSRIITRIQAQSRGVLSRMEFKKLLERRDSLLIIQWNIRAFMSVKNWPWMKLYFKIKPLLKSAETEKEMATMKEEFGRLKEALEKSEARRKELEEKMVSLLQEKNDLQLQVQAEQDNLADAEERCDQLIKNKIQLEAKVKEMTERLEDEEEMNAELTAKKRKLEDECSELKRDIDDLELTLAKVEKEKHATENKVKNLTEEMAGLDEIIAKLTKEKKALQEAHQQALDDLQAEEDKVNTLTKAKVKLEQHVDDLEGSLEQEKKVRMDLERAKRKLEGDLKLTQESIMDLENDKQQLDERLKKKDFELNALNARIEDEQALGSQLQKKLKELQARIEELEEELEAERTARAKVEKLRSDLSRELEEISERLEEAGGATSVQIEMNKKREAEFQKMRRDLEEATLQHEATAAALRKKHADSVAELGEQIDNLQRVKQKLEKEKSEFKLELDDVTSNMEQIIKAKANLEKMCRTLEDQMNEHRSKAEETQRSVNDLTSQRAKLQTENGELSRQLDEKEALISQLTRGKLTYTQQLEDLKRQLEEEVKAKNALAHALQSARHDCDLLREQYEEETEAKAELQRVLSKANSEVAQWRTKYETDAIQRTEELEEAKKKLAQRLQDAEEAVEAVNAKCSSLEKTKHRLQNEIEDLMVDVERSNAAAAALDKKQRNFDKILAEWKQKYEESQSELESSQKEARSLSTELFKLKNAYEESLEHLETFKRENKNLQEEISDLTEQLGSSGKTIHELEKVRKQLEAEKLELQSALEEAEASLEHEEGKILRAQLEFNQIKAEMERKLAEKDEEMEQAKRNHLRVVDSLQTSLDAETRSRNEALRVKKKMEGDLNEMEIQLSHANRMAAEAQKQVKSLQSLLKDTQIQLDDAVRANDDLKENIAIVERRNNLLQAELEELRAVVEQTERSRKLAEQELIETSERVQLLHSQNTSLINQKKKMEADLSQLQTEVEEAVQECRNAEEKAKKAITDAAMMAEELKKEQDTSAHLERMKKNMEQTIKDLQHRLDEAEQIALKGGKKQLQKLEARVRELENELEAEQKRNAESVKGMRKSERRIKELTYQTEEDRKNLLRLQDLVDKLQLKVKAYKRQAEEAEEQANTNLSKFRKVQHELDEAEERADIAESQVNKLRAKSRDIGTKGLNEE
Protocol: as §1, §2, §3, §4, §5

[3] = tested on: myosin ATPase, Porcine Atria myofibrils; experiment: Myofibril ATPase assay, porcine atria myofibrils; assay type: biochemical; details: concentration required to reduce myosin ATP-ase activity by 25%; Porcine Atria Prep pCa 25 GEOM_MEAN

Rabbit Psoas EC25 (Y75 value) [1] [µM]	Porcine Ventricle EC25 (Y75 value) [2] [µM]	Porcine Atria EC25 (Y75 value) [3] [µM]	SMILES
21.6	100	15.77	Cc1nccc2[nH]c(=O)n(CC(=O)N[C@H](C)c3ncc(C#N)cc3F)c(=O)c12 (single isomer, unassigned) [Compound 19]
5.422	100	79	C[C@H](NC(=O)Cn1c(=O)[nH]c2cnccc2c1=O)c1ccc(F)cc1F [Compound 301, (S)-N-(1-(2,4-difluorophenyl)ethyl)-2-(2,4-dioxo-1,4-dihydropyrido[3,4-d]pyrimidin-3(2H)-yl)acetamide]
2.538	100	1.074	C[C@@H](NC(=O)Cn1c(=O)[nH]c2ccc(F)c(F)c2c1=O)c1ccc(C#N)nn1 (single isomer, unassigned) [Compound 3]
1.26	100	100	CC(c1ccc(F)cc1F)N(C)C(=O)Cn1c(=O)[nH]c2ccccc2c1=O (centres unmarked) [Compound 521, N-(1-(2,4-difluorophenyl)ethyl)-2-(2,4-dioxo-1,4-dihydroquinazolin-3(2H)-yl)-N-methylacetamide]
100	100	100	CC(C)C(C(=O)N[C@@H](C)c1ccc(F)cc1F)n1c(=O)[nH]c2ccccc2c1=O (single isomer, unassigned) [Compound 513]
5.692	1.467	0.3543	C[C@@H](NC(=O)Cn1c(=O)[nH]c2ccc(F)cc2c1=O)c1ncc(C#N)cc1F (single isomer, unassigned) [Compound 7]
100	100	100	CC(NC(=O)Cn1c(=O)[nH]c2ccccc2c1=O)c1cccs1 (centres unmarked) [Compound 606, 2-(2,4-dioxo-1,4-dihydroquinazolin-3(2H)-yl)-N-(1-(thiophen-2-yl)ethyl)acetamide]
100	100	100	CC(NC(=O)Cn1c(=O)[nH]c2ccccc2c1=O)C1CCCC1 (centres unmarked) [Compound 605, N-(1-cyclopentylethyl)-2-(2,4-dioxo-1,4-dihydroquinazolin-3(2H)-yl)acetamide]
65.656	29.03	33.59	CC(C)CN(C(=O)Cn1c(=O)[nH]c2ccccc2c1=O)C(C)c1ccc(F)cc1F (centres unmarked) [Compound 506, N-(1-(2,4-difluorophenyl)ethyl)-2-(2,4-dioxo-1,4-dihydroquinazolin-3(2H)-yl)-N-isobutylacetamide]
100	100	100	COc1cc2c(cc1OC)C(NC(=O)Cn1c(=O)[nH]c3ccccc3c1=O)CC2 (centres unmarked) [Compound 703, N-(5,6-dimethoxy-2,3-dihydro-1H-inden-1-yl)-2-(2,4-dioxo-1,4-dihydroquinazolin-3(2H)-yl)acetamide]
100	–	–	O=C(Cn1c(=O)[nH]c2ccccc2c1=O)NCc1ccccn1 [Compound 5005, 2-(2,4-dioxo-1,4-dihydroquinazolin-3(2H)-yl)-N-(pyridin-2-ylmethyl)acetamide]
100	100	100	C[C@@H](NC(=O)Cn1c(=O)[nH]c2ccccc2c1=O)c1ccccc1 (single isomer, unassigned) [Compound 533]
–	100.00	5.34	C[C@@H](NC(=O)Cn1c(=O)[nH]c2ccc(F)c(C#N)c2c1=O)c1ncc(C#N)cc1F (single isomer, unassigned) [Compound 3001]
0.591	0.256	–	C[C@H](NC(=O)Cn1c(=O)[nH]c2cccc(Cl)c2c1=O)c1ccc(F)cc1F [Compound 136, (S)-2-(5-chloro-2,4-dioxo-1,4-dihydroquinazolin-3(2H)-yl)-N-(1-(2,4-difluorophenyl)ethyl)acetamide]
0.52	7.022	–	C[C@H](NC(=O)Cn1c(=O)[nH]c2ccccc2c1=O)c1ccc(F)cc1F [Compound 167, (S)-N-(1-(2,4-difluorophenyl)ethyl)-2-(2,4-dioxo-1,4-dihydroquinazolin-3(2H)-yl)acetamide]
100	–	–	CC(NC(=O)Cn1c(=O)[nH]c2ccccc2c1=O)C1CN(C)CCO1 (centres unmarked) [Compound 5001, 2-(2,4-dioxo-1,4-dihydroquinazolin-3(2H)-yl)-N-(1-(4-methylmorpholin-2-yl)ethyl)acetamide]
–	0.24	0.11	C[C@H](NC(=O)Cn1c(=O)[nH]c2ccc(F)c(C#N)c2c1=O)c1ncc(C#N)cc1F (single isomer, unassigned) [Compound 3002]
100	–	–	O=C(Cn1c(=O)[nH]c2ccccc2c1=O)NCCc1ccccc1Cl [Compound 5008, N-(2-chlorophenethyl)-2-(2,4-dioxo-1,4-dihydroquinazolin-3(2H)-yl)acetamide]
100	–	–	CC(NC(=O)Cn1c(=O)[nH]c2ccccc2c1=O)C1CCCCC1 (centres unmarked) [Compound 5003, N-(1-cyclohexylethyl)-2-(2,4-dioxo-1,4-dihydroquinazolin-3(2H)-yl)acetamide]
100	–	–	O=C(Cn1c(=O)[nH]c2ccccc2c1=O)NCc1ccncc1 [Compound 5007, 2-(2,4-dioxo-1,4-dihydroquinazolin-3(2H)-yl)-N-(pyridin-4-ylmethyl)acetamide]
100	–	–	C[C@H](NC(=O)Cn1c(=O)[nH]c2ccccc2c1=O)c1cccc2ccccc12 (single isomer, unassigned) [Compound 5002]
100	–	–	O=C(Cn1c(=O)[nH]c2ccccc2c1=O)NCc1ccc(Cn2cccn2)cc1 [Compound 5004, N-(4-((1H-pyrazol-1-yl)methyl)benzyl)-2-(2,4-dioxo-1,4-dihydroquinazolin-3(2H)-yl)acetamide]
–	63.05	1.32	Cc1ccc2[nH]c(=O)n(CC(=O)N[C@H](C)c3ncc(C#N)cc3F)c(=O)c2c1F (single isomer, unassigned) [Compound 3003]
100	–	–	O=C(Cn1c(=O)[nH]c2ccccc2c1=O)NCc1cccnc1 [Compound 5006, 2-(2,4-dioxo-1,4-dihydroquinazolin-3(2H)-yl)-N-(pyridin-3-ylmethyl)acetamide]
–	0.51	0.18	Cc1ccc2[nH]c(=O)n(CC(=O)N[C@@H](C)c3ncc(C#N)cc3F)c(=O)c2c1F (single isomer, unassigned) [Compound 3004]
